Results taken from patent publication US20250188030A1, “Biphenyl and Phenylpyridine Compounds” (Pfizer Inc., priority 2023, published 2025).
Where two headings read alike, the source gives them in different places.

Legend:
MM.1S cells = assay: MM1.S 10 Day Proliferation Assay (CellTiter-Glo); format: cell-based, Human; conditions: Homo sapiens, MM1.S, 240 h
Summary of the method: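 MM.1S cells, 500/well in ultra-low-attachment plates, were pre-incubated 16 h, then exposed to a 10-point 1:3 dilution series (top 10 μM final, 0.1% DMSO) for 10 days at 37 °C, with compound-containing medium refreshed at day 5. Viability was read by CellTiter-Glo luminescence; IC50 came from four-parameter fit.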

KAT2A = KAT2A (Homo sapiens (Human), UniProt Q92830); assay: KAT2A acetyltransferase biochemical assay (RapidFire mass spectrometry, AcCoA to CoA)
Sequence of KAT2A (Q92830 whole entry): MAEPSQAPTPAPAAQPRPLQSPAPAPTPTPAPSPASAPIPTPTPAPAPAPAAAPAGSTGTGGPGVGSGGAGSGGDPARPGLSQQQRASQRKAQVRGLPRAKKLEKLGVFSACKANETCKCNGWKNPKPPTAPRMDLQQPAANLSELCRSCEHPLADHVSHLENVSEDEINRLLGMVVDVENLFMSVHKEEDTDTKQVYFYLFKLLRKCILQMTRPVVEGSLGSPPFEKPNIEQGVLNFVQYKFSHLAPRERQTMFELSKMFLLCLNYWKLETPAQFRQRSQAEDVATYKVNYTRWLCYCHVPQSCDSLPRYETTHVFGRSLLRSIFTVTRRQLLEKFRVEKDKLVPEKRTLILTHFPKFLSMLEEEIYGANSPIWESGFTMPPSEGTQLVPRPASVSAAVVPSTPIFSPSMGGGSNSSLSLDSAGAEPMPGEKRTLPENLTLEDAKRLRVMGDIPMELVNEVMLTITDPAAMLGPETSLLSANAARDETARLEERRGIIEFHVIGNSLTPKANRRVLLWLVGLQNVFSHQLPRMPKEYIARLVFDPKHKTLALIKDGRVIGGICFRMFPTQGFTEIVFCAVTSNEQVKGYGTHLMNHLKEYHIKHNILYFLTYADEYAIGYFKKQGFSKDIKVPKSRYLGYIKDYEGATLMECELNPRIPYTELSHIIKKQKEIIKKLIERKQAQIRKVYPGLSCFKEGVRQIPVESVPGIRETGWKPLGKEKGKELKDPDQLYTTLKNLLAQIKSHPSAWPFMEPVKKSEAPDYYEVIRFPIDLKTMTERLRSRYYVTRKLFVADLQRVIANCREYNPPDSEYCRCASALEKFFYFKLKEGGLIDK

H3K9AC (HT1080 cells) = assay: H3K9AC Sandwich ELISA Assay in HT1080 cells (KAT2A primary cell-based screening assay); parameters: species or system Human; conditions: Homo sapiens, HT-1080, H3K9AC sandwich ELISA
Summary of the method: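 HT1080 fibrosarcoma cells seeded 16 h, then treated 24 h at 37 °C with 10-point 1:3 compound dilutions (top 10 µM final, 0.1% DMSO). Acid lysates neutralized with butyrate/PMSF; H3K9ac measured by total-H3-capture sandwich ELISA with luminescent HRP readout, IC50 by four-parameter fit.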

[1] = KAT2A Ki at 1 μM AcCoA, 5 μM H3 1-21 peptide, 0.5 nM KAT2A, 90-minute reaction
[2] = read-out: KAT2A Ki at 1 μM AcCoA, 5 μM H3 1-21 peptide, 0.5 nM KAT2A, 90-minute reaction

Row | IC50 (MM.1S cells) | Ki (KAT2A; [1]) | IC50 (H3K9AC (HT1080 cells)) | Ki (KAT2A; [2]) | Compound
1 | 5.37 nM | 0.05 nM | 3.56 nM |  | CN(C)S(=O)(=O)NC(=O)C(C)(C)c1ccc(O[C@@H]2CC[C@@H](NC(=O)[C@@]3(F)CNC4(CCC4)C3)C2)c(-c2cccc(F)c2C2CCC2)c1 [Example C2, (7S)-N-{(1R,3R)-3-[(2′-cyclobutyl-5-{1-[(dimethylsulfamoyl)amino]-2-methyl-1-oxopropan-2-yl}-3′-fluorobiphenyl-2-yl)oxy]cyclopentyl}-7-fluoro-5-azaspiro[3.4]octane-7-carboxamide]
2 | 62.9 nM |  | 7.4 nM | 2.16 nM | CCc1ccccc1-c1cc(C(C)(C)C(=O)NS(=O)(=O)C(C)C)ccc1O[C@@H]1CC[C@@H](NC(=O)[C@@]2(F)CNC3(CCC3)C2)C1 [Example C46, (7S)-N-[(1R,3R)-3-({2′-ethyl-5-[2-methyl-1-oxo-1-(propane-2-sulfonamido)propan-2-yl][1,1′-biphenyl]-2-yl}oxy)cyclopentyl]-7-fluoro-5-azaspiro[3.4]octane-7-carboxamide]
3 | 14.3 nM |  | 2.9 nM | 0.33 nM | CC(C)c1ccccc1-c1cc(C(C)(C)C(=O)NS(=O)(=O)C(C)C)ccc1O[C@@H]1CC[C@@H](NC(=O)[C@@]2(F)CNC3(CCC3)C2)C1 [Example C47, (7S)-7-fluoro-N-[(1R,3R)-3-({5-[2-methyl-1-oxo-1-(propane-2-sulfonamido)propan-2-yl]-2′-(propan-2-yl)[1,1′-biphenyl]-2-yl}oxy)cyclopentyl]-5-azaspiro[3.4]octane-7-carboxamide]
4 | 4 nM |  | 3 nM | 0.4 nM | CCc1ccccc1-c1cc(CC(=O)NS(=O)(=O)C2(C)CC2)ccc1O[C@@H]1CC[C@@H](NC(=O)[C@@]2(F)CNC3(CCC3)C2)C1 [Example C51, (7S)-N-[(1R,3R)-3-({2′-ethyl-5-[2-(1-methylcyclopropane-1-sulfonamido)-2-oxoethyl][1,1′-biphenyl]-2-yl}oxy)cyclopentyl]-7-fluoro-5-azaspiro[3.4]octane-7-carboxamide]
5 | 1.4 nM |  | 0.9 nM | 0.04 nM | CC(C)c1ccccc1-c1cc(CC(=O)NS(=O)(=O)C2(C)CC2)ccc1O[C@@H]1CC[C@@H](NC(=O)[C@@]2(F)CNC3(CCC3)C2)C1 [Example C54, (7S)-7-fluoro-N-[(1R,3R)-3-({5-[2-(1-methylcyclopropane-1-sulfonamido)-2-oxoethyl]-2′-(propan-2-yl)[1,1′-biphenyl]-2-yl}oxy)cyclopentyl]-5-azaspiro[3.4]octane-7-carboxamide]
6 | 2.5 nM |  | 0.8 nM | 0.11 nM | CC(C)c1ccccc1-c1cc(CC(=O)NS(=O)(=O)C(C)C)ccc1O[C@@H]1CC[C@@H](NC(=O)[C@@]2(F)CNC3(CCC3)C2)C1 [Example C55, (7S)-7-fluoro-N-[(1R,3R)-3-({5-[2-oxo-2-(propane-2-sulfonamido)ethyl]-2′-(propan-2-yl)[1,1′-biphenyl]-2-yl}oxy)cyclopentyl]-5-azaspiro[3.4]octane-7-carboxamide]
7 | 8.1 nM |  | 3.4 nM | 0.11 nM | CCc1c(F)cccc1-c1cc(CC(=O)NS(=O)(=O)C(C)C)ccc1O[C@@H]1CC[C@@H](NC(=O)[C@@]2(F)CNC3(CCC3)C2)C1 [Example C58, (7S)-N-[(1R,3R)-3-({2′-ethyl-3′-fluoro-5-[2-oxo-2-(propane-2-sulfonamido)ethyl][1,1′-biphenyl]-2-yl}oxy)cyclopentyl]-7-fluoro-5-azaspiro[3.4]octane-7-carboxamide]
8 | 31.8 nM |  | 3.8 nM | 0.16 nM | CC(C)S(=O)(=O)NC(=O)C(C)(C)c1cnc(O[C@@H]2CC[C@@H](NC(=O)[C@@]3(F)CNC4(CCC4)C3)C2)c(-c2cccc(F)c2C2CCC2)c1 [Example C65, (7S)-N-[(1R,3R)-3-({3-(2-cyclobutyl-3-fluorophenyl)-5-[2-methyl-1-oxo-1-(propane-2-sulfonamido)propan-2-yl]pyridin-2-yl}oxy)cyclopentyl]-7-fluoro-5-azaspiro[3.4]octane-7-carboxamide]
9 | 419 nM |  | 52.8 nM | 4.05 nM | CN1CC(C)(C)C[C@H]1C(=O)N[C@@H]1CC[C@@H](Oc2ccc(C(C)(C)C(=O)O)cc2-c2cccc(F)c2C2CCC2)C1 [Example D1, 2-[2′-cyclobutyl-3′-fluoro-6-({(1R,3R)-3-[(1,4,4-trimethyl-L-prolyl)amino]cyclopentyl}oxy)[1,1′-biphenyl]-3-yl]-2-methylpropanoic acid]
10 | 497 nM |  | 98.5 nM | 91.9 nM | CC(C)c1ccccc1-c1cc(CC(=O)O)ccc1O[C@@H]1CC[C@@H](NC(=O)[C@@H]2CC(C)(C)CN2C)C1 [Example D11, [2′-(propan-2-yl)-6-({(1R,3R)-3-[(1,4,4-trimethyl-L-prolyl)amino]cyclopentyl}oxy)[1,1′-biphenyl]-3-yl]acetic acid]
11 | 61.4 nM | 0.66 nM | 10.8 nM |  | CN1CC(C)(C)C[C@H]1C(=O)N[C@@H]1CC[C@@H](Oc2ccc(CC(=O)NS(C)(=O)=O)cc2-c2cccc(F)c2C2CCC2)C1 [Example E2, N-{(1R,3R)-3-[(2′-cyclobutyl-3′-fluoro-5-{2-[(methanesulfonyl)amino]-2-oxoethyl}[1,1′-biphenyl]-2-yl)oxy]cyclopentyl}-1,4,4-trimethyl-L-prolinamide]
12 | 11.9 nM |  | 4.83 nM | 0.31 nM | [2H]C([2H])([2H])N1CC(C)(C)C[C@H]1C(=O)N[C@@H]1CC[C@@H](Oc2ccc(C(C)(C)C(=O)NS(C)(=O)=O)cc2-c2cccc(F)c2C2CCC2)C1 [Example E5]
13 | 203 nM |  | 99 nM | 53 nM | CN1CC(C)(C)C[C@H]1C(=O)N[C@@H]1CC[C@@H](Oc2ccc(C(C)(C)C(=O)NS(C)(=O)=O)cc2-c2ccccc2CC(F)(F)F)C1 [Example E6, N-[(1R,3R)-3-{[5-{1-[(methanesulfonyl)amino]-2-methyl-1-oxopropan-2-yl}-2′-(2,2,2-trifluoroethyl)[1,1′-biphenyl]-2-yl]oxy}cyclopentyl]-1,4,4-trimethyl-L-prolinamide]
14 | 202 nM |  | 34.2 nM | 26.6 nM | CN1CC(C)(C)C[C@H]1C(=O)N[C@@H]1CC[C@@H](Oc2ccc(C(C)(C)C(=O)NS(C)(=O)=O)cc2-c2cccc(F)c2C2CC2)C1 [Example E7, N-{(1R,3R)-3-[(2′-cyclopropyl-3′-fluoro-5-{1-[(methanesulfonyl)amino]-2-methyl-1-oxopropan-2-yl}[1,1′-biphenyl]-2-yl)oxy]cyclopentyl}-1,4,4-trimethyl-L-prolinamide]
15 | 126 nM |  | 21.3 nM | 26.4 nM | CCc1c(F)cccc1-c1cc(C(C)(C)C(=O)NS(C)(=O)=O)ccc1O[C@@H]1CC[C@@H](NC(=O)[C@@H]2CC(C)(C)CN2C)C1 [Example E10, N-{(1R,3R)-3-[(2′-ethyl-3′-fluoro-5-{1-[(methanesulfonyl)amino]-2-methyl-1-oxopropan-2-yl}[1,1′-biphenyl]-2-yl)oxy]cyclopentyl}-1,4,4-trimethyl-L-prolinamide]
16 | 73.4 nM |  | 24.2 nM | 1.7 nM | CN1CC(C)(C)C[C@H]1C(=O)N[C@@H]1CC[C@@H](Oc2ccc(C(C)(C)C(=O)NS(C)(=O)=O)cc2-c2ccc(F)c(F)c2C2CCC2)C1 [Example E11, N-{(1R,3R)-3-[(2′-cyclobutyl-3′,4′-difluoro-5-{1-[(methanesulfonyl)amino]-2-methyl-1-oxopropan-2-yl}[1,1′-biphenyl]-2-yl)oxy]cyclopentyl}-1,4,4-trimethyl-L-prolinamide]
17 | 125 nM |  | 41.5 nM | 12.9 nM | CN1CC(C)(C)C[C@H]1C(=O)N[C@H]1C[C@H](COc2ccc(CC(=O)O)cc2-c2cccc(F)c2C2CCC2)C1 [Example F1, [2′-cyclobutyl-3′-fluoro-6-({(1S,3r)-3-[(1,4,4-trimethyl-L-prolyl)amino]cyclobutyl}methoxy)[1,1′-biphenyl]-3-yl]acetic acid]
18 | 625 nM | 9.11 nM | 71.2 nM |  | CN1CC(C)(C)C[C@H]1C(=O)N[C@H]1C[C@H](COc2ccc(C(C)(C)C(=O)O)cc2-c2cccc(F)c2C2CCC2)C1 [Example F2, 2-[2′-cyclobutyl-3′-fluoro-6-({(1S,3r)-3-[(1,4,4-trimethyl-L-prolyl)amino]cyclobutyl}methoxy)[1,1′-biphenyl]-3-yl]-2-methylpropanoic acid]
19 | 56.9 nM | 1.68 nM | 9.38 nM |  | CN1CC(C)(C)C[C@H]1C(=O)N[C@H]1C[C@H](COc2ccc(C(C)(C)C(=O)NS(C)(=O)=O)cc2-c2cccc(F)c2C2CCC2)C1 [Example G2, N-[(1r,3S)-3-{[(2′-cyclobutyl-3′-fluoro-5-{1-[(methanesulfonyl)amino]-2-methyl-1-oxopropan-2-yl}[1,1′-biphenyl]-2-yl)oxy]methyl}cyclobutyl]-1,4,4-trimethyl-L-prolinamide]
20 | 56 nM |  | 7.01 nM | 0.16 nM | Cc1cc(NS(C)(=O)=O)n(-c2ccc(O[C@@H]3CC[C@@H](NC(=O)[C@@H]4CC(C)(C)CN4C)C3)c(-c3cccc(F)c3C3CCC3)c2)n1 [Example L1, N-[(1R,3R)-3-({2′-cyclobutyl-3′-fluoro-5-[5-(methanesulfonamido)-3-methyl-1H-pyrazol-1-yl][1,1′-biphenyl]-2-yl}oxy)cyclopentyl]-1,4,4-trimethyl-L-prolinamide]
